US20200069775A1, “BRAIN OSTEOCALCIN RECEPTOR AND COGNITIVE DISORDERS” (The Trustees of Columbia University in the City of New York, priority 2017, published 2020)

Test system: WT 2-month old mice
Assay: ICV delivery in WT adult mice, D/LT and EPMT
Type: in vivo, mouse
Details: ICV 3 or 10 ng/hour, one month
Description: Each mouse was allowed to explore the apparatus for 5 min. Global activity was assessed by measuring the number of entries […] (David et al, 2009, Neuron 62:479-493). Anxiety was assessed by comparing the time spent in the open arms.
The test was performed in a quiet, darkened room. Mice were individually housed in cages containing a handful of bedding from their home cage and acclimated to the room at least 1 h before the test. Naive mice were placed individually in the testing chamber in the dark compartment. The test was 5 min in duration, and time spent and number of entries in light compartments were recorded a highly trained observer, blind to the genotype of the mice.
To determine if osteocalcin is sufficient to improve cognitive function in adult mice, WT 2-month old mice were implanted with ICV pumps delivering vehicle (PBS), or 3, 10, or 30 ng/hr recombinant uncarboxylated full-length mouse osteocalcin for a period of one month. After one month of infusion, animals were subjected to behavioral testing.

osteocalcin: Recombinant osteocalcin bacterially produced, cleaved from the GST subunit; completely undercarboxylated at all three sites; full-length mouse osteocalcin (YLGASVPSPDPLEPTREQCELNPACDELSDQYGLKTAYKRIYGITI)
anxiety-like behavior (D/LT and EPMT): decrease in anxiety-like behavior
exploration of the lit compartment and open arms (D/LT, EPM): increase in the exploration of the lit compartment and open arms
